# Assay results taken from patent US9750760B2, “Uridine diphosphate derivatives, prodrugs, compositions and methods for treating neurodegenerative disorders” (Tufts University, priority 2012, dated 2017).
# How the values were obtained:
# [1] = biological target: T1, P2Y6 receptor (Homo sapiens, UniProt Q15077); assay: Activation of P2Y6 receptor: receptor induced Ca2+ changes with fluo-4 in 1321N1 astrocytoma cells; type: cell-based
# T1 construct: expressed in transfected cells; host or cells: 1321N1 human astrocytoma cell line
# Procedure: Synthetic ligands were tested for activation of P2Y6 receptor by measuring receptor induced Ca^2+ changes with the fluorescent Ca^2+ indicator fluo-4. 1321N1 human astrocytoma cell lines either expressing P2Y2, P2Y4 or P2Y6 receptors were plated into 24-well plates. Two days after plating, fluorometric measurements were made and responses of cells to a serial dilution of ligands were determined P2Y6 receptor-mediated Ca^2+ fluorescent change was determined by normalized accumulation of fluorescent change of 3 timepoints after ligand administration subtracted by value from ACSF control. Changes in fluorescent intensity were plotted corresponding to ligand concention in GraphPad. Dose-response curve and EC50 for each ligand was estimated using nonlinear curve fit and Sigmoidal dose-response analysis. […] The sodium salt of compound 5 was only effective at elevating Ca^2+ levels when applied to cells expressing P2Y6 receptors and not effective in P2Y2, or P2Y4 receptor expressing cells. The ability of the sodium salt of compound 5 to elevate Ca^2+ signals in P2Y6 expressing cells was attenuated by addition of the P2Y6 receptor antagonist MRS2578.
# (§1) Synthetic ligands were tested for activation of P2Y6 receptor by measuring receptor induced Ca^2+ changes with the fluorescent Ca^2+ indicator fluo-4, and results are shown in FIG. 10(A)-(K). 1321N1 human astrocytoma cell lines either expressing P2Y2, P2Y4 or P2Y6 receptors were plated into 24-well plates. Two days after plating, fluorometric measurements were made and responses of cells to a serial dilution of ligands were determined P2Y6 receptor-mediated Ca^2+ fluorescent change was determined by normalized accumulation of fluorescent change of 3 timepoints after ligand administration subtracted by value from ACSF control. Changes in fluorescent intensity were plotted corresponding to ligand concentration in GraphPad. Dose-response curve and EC50 for each ligand was estimated using nonlinear curve fit and Sigmoidal dose-response analysis. […]
# [2] = tested on: PSAPP mice; assay: Postmortem immunohistochemistry of plaque load in cortex and hippocampus; type: in vivo, mouse
# From the text: (§2) Heterozygous mutant (K670N/M671L) APP (50% C57B6, 50% SJL) transgenic mice were crossed with heterozygous mutant (A246E) PS-1 (50% C57B6, 50% SJL) transgenic mice to generate heterozygous PSAPP transgenic mice (also referred to as PS-1/APP or PSAPP+/+ mice), which refers to animals heterozygous for the PS-1 A246E transgene and the APP K670N/M671L transgene. Non-transgenic control animals were littermates (also referred to as PSAPP_−/− mice) generated in the breeding for PSAPP transgenic animals. Mouse genotype was determined by Polymerase Chain Reaction (PCR). Both male and female mice of 6-7 months old were used for the experiments below. All animal experiments were performed in accordance with the Tufts Animal Care and Use Committee and with national regulations and policies.
# Mice were perfused transcardially with 4% paraformaldehyde and 40 μm Coronal sections were collected. Sections were sequentially incubated in 0.3% H2O2 for 10 minutes, blocking solution for 2 hrs, blocking solution containing the primary antibody (rabbit anti-beta1-42; rabbit anti-beta1-40, from Chemicon International and rat anti-CD45) for 48 hours at 4° C., and blocking solution containing biotinylated antibody or fluorescently-labeled antibody for 2 hours at room temperature. Sections were visualized in a bright field microscope or a confocal microscope, and the optical density was obtained using MetaMorph software.
# After repeated imaging, brains were fixed and subjected to postmortem immunohistochemistry with amyloid beta specific antibodies β1-40 and β1-42 to evaluate the plaque load (area occupied by immunostaining of plaque) in cortex and hippocampus.
# PSB0474 was systemically administered to PSAPP mice via intraperitoneal injection for 2, 4 and 6 consecutive days. In one group, prior to evaluation and following to administration for 6 consecutive days, treatment was suspended for two weeks (6+2 weeks group). Brains were then fixed and plaque load was evaluated by immunostaining with the amyloid beta specific antibodies: β1-40 and β1-42. Representative images of plaque load in cortex and hippocampus from animals that received injections of PSB0474 according to the foregoing injection schedules are shown in FIG. 5(A)-(D). […] Whereas, when administration of PSB0474 was stopped for 2 weeks following six consecutive days of treatment (denoted as the 6+2 weeks group), β1-40 staining rebounded; although to a level lower than observed in mice treated with saline as a vehicle control. FIGS. 6A and 6B depict the reduction in plaque load (%) the cortex and hippocampus, respectively, in PSAPP mice after treatment with 3-phenacyl-UDP for 2, 4, or 6 consecutive days, as assayed by staining with the β1-40 antibody. FIGS. 6C-6F depict data obtained following administration of different dosages of PSB0474.
# To generate these graphs showing plaque load, mice were euthanized, brain sections cut and antibodies directed against Aβ 42 were used to disclose Aβ plaques. Images were acquired digitally and an algorithm was applied to threshold the image so that plaques were isolated from the background. The algorithm then calculated the percent area of the field of view occupied by the plaques.
# [3] = tested on: PSAPP mice; assay: Contextual fear conditioning test (freezing behavior); type: in vivo, mouse
# Procedure: On day one, animals were trained in a fear conditioning apparatus for a total of 7 minutes with a two-pairing paradigm of cue and mild foot shock (a 30-s acoustic-conditioned stimulus, 80 dB; a 2-s shock stimulus, 0.5 mA). To evaluate contextual fear learning, the animals were returned to the training context 24 hours post-training, and freezing behavior was scored for 5 minutes. Freezing behavior was monitored by MotorMonitor (Hamilton Kinder) and scored every 5 seconds.
# In this study, the fear conditioning associative learning paradigm was used as a rapid cognition assay for PSAPP mice. This study allowed us to probe cognitive function with a single training day followed in 24 hours by tests for contextual and cued fear learning. Contextual fear learning is dependent upon a brain area that has been implicated as a locus for cognitive decline in AD: the hippocampus. Two pairings of CS-US for fear conditioning were followed 24 hours later by testing for contextual and cued fear learning. Previous studies have reported that PSAPP animals appear to have a selective hippocampus-dependent impairment in associative learning following two pairings of conditioned stimuli for fear conditioning.
# This represents a decrease in the cognitive impairment observed in the untreated mice.
# [4] = tested on: PSAPP mice; assay: Two-photon in vivo imaging of methoxyX04-labeled amyloid plaques in barrel cortex; set-up: species or system mouse; conditions: vs ACSF
# From the text: as §2
# In this study, PSAPP mice were anesthetized using isoflurane and a thin-skull preparation was used to minimize the surface damage. Amyloid plaques were visualized with methoxyX04 labeling and blood plasma was labeled with Rhodamine dextran to facilitate re-localization of the same imaging area. Stack images were obtained using a two-photon system (Prairie Technologies) with excitation at 850 nm. The emission was detected by external photomultiplier tubes (525/70; DLCP 575; 607/45 nm).
# Animals were anesthetized and immobilized in a stereotaxic frame. […]
# [5] = tested on: PSAPP mice; assay: Hippocampal long-term potentiation (LTP) recording, CA1, high-frequency stimulation; type: in vivo, mouse; conditions: acute treatment
# Procedure: Hippocampal slices (350 μm thick) were prepared from 6-month-old PSAPP mice. Baseline responses were obtained every 10 seconds and Input-output (I/O) curves, paired-pulse modification and LTP were successively measured. The stimulation intensity was set to a level that gives a value of 30% of the maximum obtained. LTP were induced by high frequency stimulation (HFS, 100 pulses at 100 Hz, four times) or by theta-burst stimulation (TBS, 10 bursts at 5 Hz, repeated 10 times in 15 s intervals).
# Accumulated evidence has shown that amyloid peptides naturally secreted or isolated from Alzheimer's brains impair synaptic plasticity, especially hippocampal long-term potentiation (Walsh et al., 2002). Therefore, we further performed LTP recordings in PASPP mice and investigated whether P2Y6 receptor-mediated plaque clearance affects synaptic plasticity. […] First, it was observed that LTP at the schaffer collateral synapse within the CA1 region was depressed in PSAPP mice, as compared with littermates (FIG. 8(A)).
# [6] = tested on: wildtype mice; assay: Plasma cytokine levels in wildtype mice; type: in vivo, mouse; conditions: wildtype animals, 1 ug/kg i.p. daily x7
# Procedure: (§3) Inflammatory cytokines were assessed in mouse plasma of both wild type and PS1/APP mice (Alzheimer's mouse model) and the impact of intraperitoneal delivery of compound 5 on circulating cytokines was assessed. Seven daily intraperitoneal injections of 1 ug/kg of compound 5 were delivered to mice. 24 hours following the final injection, plasma was collected. Wildtype, age matched littermates and PSAPP mice (>6 months of age) were treated either with vehicle (phosphate buffered saline) or vehicle containing compound.
# [7] = biological target: T2, P2Y4 receptor (Homo sapiens, UniProt P51582); assay: Ca2+ mobilization (fluo-4) in 1321N1 astrocytoma cells expressing P2Y4 receptor; type: cell-based; conditions: sodium salt; 1321N1 cells expressing P2Y4
# T2 construct: expressed in transfected cells; host or cells: 1321N1 human astrocytoma cell line
# Procedure: as §1, with “fluo-4.” for “fluo-4, and results are shown in FIG. 10(A)-(K).”, “concention” for “concentration”
# (§4) Synthetic ligands were tested for activation of P2Y6 receptor by measuring receptor induced Ca^2+ changes with the fluorescent Ca^2+ indicator fluo-4, and results are shown in FIG. 10(A)-(K). […] Two days after plating, fluorometric measurements were made and responses of cells to a serial dilution of ligands were determined P2Y6 receptor-mediated Ca^2+ fluorescent change was determined by normalized accumulation of fluorescent change of 3 timepoints after ligand administration subtracted by value from ACSF control. […]
# [8] = tested on: PSAPP mice; assay: Plasma cytokine levels in PSAPP mice; type: in vivo, mouse
# Procedure: as §3
# [9] = biological target: T3, P2Y2 receptor (Homo sapiens, UniProt P41231); assay: Ca2+ mobilization (fluo-4) in 1321N1 astrocytoma cells expressing P2Y2 receptor; type: cell-based; conditions: sodium salt; 1321N1 cells expressing P2Y2
# T3 construct: expressed in transfected cells; host or cells: 1321N1 human astrocytoma cell line
# Procedure: as §1, with “fluo-4.” for “fluo-4, and results are shown in FIG. 10(A)-(K).”, “concention” for “concentration”
# as §4
# [10] = β1-42 antibody, i.p. daily 7 days, vs vehicle
# T1 sequence (Q15077 whole entry): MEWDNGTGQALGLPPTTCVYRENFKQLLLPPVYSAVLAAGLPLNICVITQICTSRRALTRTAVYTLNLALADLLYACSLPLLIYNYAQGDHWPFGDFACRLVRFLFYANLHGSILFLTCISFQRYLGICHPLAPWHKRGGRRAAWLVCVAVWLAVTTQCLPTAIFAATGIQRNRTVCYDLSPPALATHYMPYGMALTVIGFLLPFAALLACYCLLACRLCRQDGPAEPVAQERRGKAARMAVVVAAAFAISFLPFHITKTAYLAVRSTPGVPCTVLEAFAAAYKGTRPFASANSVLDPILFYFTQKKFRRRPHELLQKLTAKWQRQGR
# T3 sequence (P41231 whole entry): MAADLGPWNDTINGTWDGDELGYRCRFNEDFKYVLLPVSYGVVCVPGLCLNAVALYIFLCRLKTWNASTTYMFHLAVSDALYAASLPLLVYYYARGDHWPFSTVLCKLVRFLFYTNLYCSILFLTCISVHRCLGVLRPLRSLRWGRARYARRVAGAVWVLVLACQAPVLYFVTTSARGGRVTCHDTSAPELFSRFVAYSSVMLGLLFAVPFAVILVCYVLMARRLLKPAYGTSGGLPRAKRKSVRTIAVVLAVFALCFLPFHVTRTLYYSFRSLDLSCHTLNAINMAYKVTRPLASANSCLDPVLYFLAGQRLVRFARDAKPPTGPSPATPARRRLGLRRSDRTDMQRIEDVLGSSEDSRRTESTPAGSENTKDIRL
# T2 sequence (P51582 whole entry): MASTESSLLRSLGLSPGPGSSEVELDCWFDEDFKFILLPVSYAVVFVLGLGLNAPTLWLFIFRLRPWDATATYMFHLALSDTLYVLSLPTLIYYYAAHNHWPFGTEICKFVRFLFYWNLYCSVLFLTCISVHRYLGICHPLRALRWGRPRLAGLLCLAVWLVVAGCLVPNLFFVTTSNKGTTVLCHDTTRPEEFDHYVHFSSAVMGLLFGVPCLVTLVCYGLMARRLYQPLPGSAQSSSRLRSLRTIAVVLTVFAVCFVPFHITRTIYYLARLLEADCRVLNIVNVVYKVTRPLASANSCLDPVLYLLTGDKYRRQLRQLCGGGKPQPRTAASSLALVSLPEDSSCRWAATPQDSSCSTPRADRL
smiles,measurement,setting,value
"S=C=Nc1cccc(NC(=S)NCCCCNC(=S)Nc2cccc(N=C=S)c2)c1 [MRS2578, reference compound]",effect of antagonist on Ca2+ signals elevated by sodium salt of compound 5,"[1]; P2Y6 expressing cells, antagonist added",attenuated
"O=C(Cn1c(=O)ccn(C2OC(COP(=O)(O)OP(=O)(O)O)C(O)C2O)c1=O)c1ccccc1 (stereo not drawn) [PSB0474, 3-phenacyl-UDP]",β1-40 staining,"[2]; 6 consecutive days then stopped for 2 weeks, level still lower than saline vehicle",rebounded
same,effects on the efficacy endpoint (plaque load),"[2]; higher dose of 1 mg/kg, one week daily",smaller effects
same,immunoreactivity of β1-40 in cortex and hippocampus,[2]; i.p. for 4 consecutive days,significantly decreased
same,immunoreactivity of β1-40 in cortex and hippocampus,[2]; i.p. for 6 consecutive days,significantly decreased
same,"memory deficit (freezing time), contextual fear conditioning","[3]; one week treatment with 1 ug/kg, vs vehicle",rescued the memory deficit
"O=c1ccn([C@@H]2O[C@H](COP(=O)(O)OP(=O)(O)O)[C@@H](O)[C@H]2O)c(=O)[nH]1 [UDP, uridine diphosphate]","plaque load, day 4/day 1 ratio",[4]; FIG. 2D,reduces
same,"number of plaques, day 4/day 1 ratio",[4]; FIG. 2E,reduces
same,"LTP (fEPSP %) at schaffer collateral synapse, CA1",[5]; vs ACSF,significantly increased
same,"last 15 min potentiation, field excitatory postsynaptic potential (fEPSP)",[5]; comparable to littermates,significant increase
O=c1ccn([C@@H]2O[C@H](COP(=O)(O)OP(=O)(O)O)C(O)[C@@H]2O)c(=O)n1Cc1noc2ccccc12 (stereo partly drawn) [compound 5],Aβ plaque load (%) in cortex,[2]; [10],substantial decrease
same,Aβ plaque load (%) in hippocampus,[2]; [10],substantial decrease
same,plasma IL-2 level,[6],reduced
same,plasma IL-10 level,[6],reduced
same,elevating Ca2+ levels in P2Y4 receptor expressing cells,[7],not effective
same,elevating Ca2+ levels in cells expressing P2Y6 receptors,"[1]; sodium salt, 1321N1 cells expressing P2Y6",effective
same,EC50,"[1]; sodium salt, Ca2+ fluorescent change, 1321N1 cells expressing P2Y6 receptor",12 nM
same,"freezing behavior (freezing %), contextual fear conditioning","[3]; i.p. daily for 7 consecutive days, vs vehicle control",significantly improved
same,plasma IL-2 level,[8]; 1 ug/kg i.p. daily x7,reduced
same,plasma IL-7 level,[8]; 1 ug/kg i.p. daily x7,reduced
same,plasma IL-9 level,[8]; 1 ug/kg i.p. daily x7,reduced
same,plasma IL-10 level,[8]; 1 ug/kg i.p. daily x7,reduced
same,plasma IL-15 level,[8]; 1 ug/kg i.p. daily x7,reduced
same,plasma MIG level,[8]; 1 ug/kg i.p. daily x7,reduced
same,plasma MIP1α level,[8]; 1 ug/kg i.p. daily x7,reduced
same,plasma IL-1β level,"[8]; 1 ug/kg i.p. daily x7, 24 hours after final injection",reduced
same,elevating Ca2+ levels in P2Y2 receptor expressing cells,[9],not effective
